Among the test systems are 786-0 renal; A498 renal; DU-145 prostate; EKVX NSCLC; HOP-92 NSCLC; HS 578T breast; HT29 colon; MDA-N; NCI-H226 lung; NCI/ADR-RES ovarian; OVCAR-4 ovarian; OVCAR-5 ovarian; PC-3 prostate; RXF 393 renal; SK-MEL-28 melanoma; SK-MEL-5 melanoma; SNB-19 CNS; UACC-62 melanoma.
What all share (experiment): NCI-60 cell line screen, 48 h

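The compound was tested at five concentrations on cells cultured in 96-well plates, with a 48-hour exposure period. TGI: concentration producing complete growth inhibition.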

For the molecule `NC(=O)NC1NC(=O)NC1=O` (configuration not stated), the TGI with 786-0 renal, in the test with A498 renal, in the test with DU-145 prostate, in the test on EKVX NSCLC, with HOP-92 NSCLC and in the test on HS 578T breast was above 100 µM throughout. Besides, the TGI in the test on HT29 colon, in the test with MDA-N, in the test with NCI-H226 lung, in the test with NCI/ADR-RES ovarian, in the test on OVCAR-4 ovarian and in the test with OVCAR-5 ovarian was above 100 µM each time. In addition, the TGI in the test with PC-3 prostate, in the test on RXF 393 renal, in the test on SK-MEL-28 melanoma, in the test with SK-MEL-5 melanoma, in the test on SNB-19 CNS and in the test with UACC-62 melanoma was above 100 µM throughout.
As to `CC(C)OC(=O)c1ccc(NCC2=CC(=O)C=CC2=O)cc1`, the TGI in the test on 786-0 renal was 28.5 µM; with A498 renal it was 90.3 µM; in the test with DU-145 prostate it was 35.8 µM; in the test with EKVX NSCLC it was 31.7 µM; in the test on HOP-92 NSCLC it was 8.83 µM; in the test with HS 578T breast, 65.4 µM. Also, the TGI in the test on HT29 colon was 32.7 µM; in the test with MDA-N, 29.2 µM; in the test on NCI-H226 lung, above 100 µM; in the test on NCI/ADR-RES ovarian, 30.7 µM; in the test on OVCAR-4 ovarian, 26.2 µM; in the test with OVCAR-5 ovarian, 38.9 µM. In addition, the TGI is 25.7 µM in the test with PC-3 prostate; 26.2 µM in the test with RXF 393 renal; 33 µM with SK-MEL-28 melanoma; 32.2 µM with SK-MEL-5 melanoma; above 100 µM with SNB-19 CNS; 31.4 µM in the test on UACC-62 melanoma.
Regarding `O=C(Nc1ccc(Cl)cc1)c1cc(S(=O)(=O)Nc2n[nH]c(Nc3ccc4ccccc4c3)n2)c(SSc2cc(Cl)c(C(=O)Nc3ccc(Cl)cc3)cc2S(=O)(=O)Nc2n[nH]c(Nc3ccc4ccccc4c3)n2)cc1Cl`, the TGI is above 94.3 µM in the test on 786-0 renal; 52.1 µM in the test with A498 renal; above 74.4 µM with DU-145 prostate; above 100 µM with EKVX NSCLC; 59.8 µM in the test on HOP-92 NSCLC; above 100 µM with HS 578T breast. The TGI is 38.2 µM with HT29 colon; above 84.2 µM with MDA-N; 54.4 µM in the test on NCI-H226 lung; above 85.4 µM in the test on NCI/ADR-RES ovarian; 97.5 µM with OVCAR-4 ovarian; 50.5 µM in the test on OVCAR-5 ovarian. The TGI came out at 69.1 µM in the test on PC-3 prostate; 79.9 µM with RXF 393 renal; 46.9 µM in the test with SK-MEL-28 melanoma; 40.6 µM in the test with SK-MEL-5 melanoma; 50.4 µM in the test on SNB-19 CNS; 51.7 µM with UACC-62 melanoma.
Consider `C[C@]12CC[C@H]3[C@@H](CCC4=CC(=O)CC[C@@H]43)[C@@H]1CC[C@]2(O)C(N)=O`, for which the TGI in the test on 786-0 renal, with A498 renal, with DU-145 prostate, with EKVX NSCLC, with HOP-92 NSCLC and with HS 578T breast was above 100 µM each time. The TGI with HT29 colon, in the test on MDA-N, in the test on NCI-H226 lung, with NCI/ADR-RES ovarian, with OVCAR-4 ovarian and in the test with OVCAR-5 ovarian was above 100 µM each time. Besides, the TGI with PC-3 prostate, in the test on RXF 393 renal, in the test with SK-MEL-28 melanoma, in the test with SK-MEL-5 melanoma, with SNB-19 CNS and in the test on UACC-62 melanoma was above 100 µM each time.
As for `COc1nn(Cc2ccccn2)c2ccc([N+](=O)[O-])cc12`, the TGI in the test on 786-0 renal is above 100 µM; in the test with A498 renal, above 100 µM; in the test on DU-145 prostate, above 100 µM; in the test on EKVX NSCLC it was above 100 µM; with HOP-92 NSCLC, 84.2 µM; with HS 578T breast it was 88 µM. In addition, the TGI in the test with HT29 colon was above 100 µM; in the test with MDA-N, 95.5 µM; in the test with NCI-H226 lung, above 100 µM; with NCI/ADR-RES ovarian, above 100 µM; in the test with OVCAR-4 ovarian, above 100 µM; in the test with OVCAR-5 ovarian, above 100 µM. The TGI with PC-3 prostate, in the test with RXF 393 renal, in the test on SK-MEL-28 melanoma, in the test with SK-MEL-5 melanoma, in the test with SNB-19 CNS and with UACC-62 melanoma was above 100 µM throughout.
Turning to `COC(=O)C1C2OC(C)(C)OC2CN1S(=O)(=O)c1ccc(C)cc1` (configuration not stated), the TGI in the test with 786-0 renal, in the test on A498 renal, in the test on DU-145 prostate, in the test with EKVX NSCLC, in the test with HOP-92 NSCLC and in the test with HS 578T breast was above 100 µM throughout. Also, the TGI with HT29 colon is above 100 µM; with MDA-N, above 100 µM; in the test on NCI-H226 lung, 41.1 µM; in the test with NCI/ADR-RES ovarian it was above 100 µM; in the test on OVCAR-4 ovarian it was above 100 µM; in the test with OVCAR-5 ovarian, above 100 µM. The TGI in the test on PC-3 prostate, in the test on RXF 393 renal, in the test with SK-MEL-28 melanoma, in the test with SK-MEL-5 melanoma, in the test on SNB-19 CNS and with UACC-62 melanoma was above 100 µM each time.
Turning to `C[C@]12CCC(O)CC1=CC[C@@H]1[C@@H]2CC[C@]2(C)C(O)[C@H](n3ccnc3)C[C@@H]12` (some centres not stated), the TGI in the test with 786-0 renal, in the test with A498 renal, in the test with DU-145 prostate, in the test with EKVX NSCLC, with HOP-92 NSCLC and with HS 578T breast was above 100 µM in each case. For the same molecule, the TGI with HT29 colon, in the test with MDA-N, in the test on NCI-H226 lung, in the test on NCI/ADR-RES ovarian, with OVCAR-4 ovarian and in the test on OVCAR-5 ovarian was above 100 µM each time. Further, the TGI with PC-3 prostate, in the test on RXF 393 renal, in the test with SK-MEL-28 melanoma, with SK-MEL-5 melanoma, with SNB-19 CNS and in the test with UACC-62 melanoma was above 100 µM throughout.
With `O=C1CSC(c2ccccc2)N1c1nc2cc3sc(N4C(=O)CSC4c4ccccc4)nc3cc2s1` (configuration not stated), the TGI with 786-0 renal, in the test with A498 renal, in the test with DU-145 prostate, with EKVX NSCLC, with HOP-92 NSCLC and in the test with HS 578T breast was above 100 µM each time. In addition, the TGI with HT29 colon was above 100 µM; with MDA-N, above 100 µM; in the test on NCI-H226 lung it was above 96.6 µM; in the test with NCI/ADR-RES ovarian it was above 100 µM; in the test with OVCAR-4 ovarian it was above 100 µM; in the test with OVCAR-5 ovarian it was above 100 µM. Also, the TGI in the test with PC-3 prostate, in the test on RXF 393 renal, with SK-MEL-28 melanoma, in the test with SK-MEL-5 melanoma, with SNB-19 CNS and in the test on UACC-62 melanoma was above 100 µM each time.
For `Cc1c2c(cc3c1C(=O)C(=O)C([C@@H](C)CO)=C3O)C(C)(C)CCC2`, the TGI is above 100 µM in the test with 786-0 renal; 98.9 µM in the test on A498 renal; above 100 µM with DU-145 prostate; above 100 µM in the test on EKVX NSCLC; above 100 µM in the test with HOP-92 NSCLC; above 100 µM with HS 578T breast. The TGI was 30.6 µM in the test on HT29 colon; above 100 µM in the test with MDA-N; above 100 µM in the test with NCI-H226 lung; above 100 µM in the test on NCI/ADR-RES ovarian; above 100 µM in the test on OVCAR-4 ovarian; above 100 µM in the test on OVCAR-5 ovarian. The TGI with PC-3 prostate is 48.2 µM; in the test with RXF 393 renal, 92.3 µM; with SK-MEL-28 melanoma, above 100 µM; in the test on SK-MEL-5 melanoma, 86.9 µM; in the test with SNB-19 CNS, 23.3 µM; in the test on UACC-62 melanoma, above 100 µM.
